Measured values taken from ChEMBL document CHEMBL1909046, “DrugMatrix in vitro pharmacology data”.

Key:
[1] = biological target: 5-hydroxytryptamine receptor 4 (Cavia porcellus, UniProt O70528); assay type: cell membranes, Dunkin-Hartley, Striatum, Membrane; also: in other assays of this panel Not Active means under 50% inhibition at 10 µM
Substance-P receptor = Substance-P receptor (Homo sapiens, UniProt P25103); assay type: cell membranes, CHO, Membrane; also: in other assays of this panel Not Active means under 50% inhibition at 10 µM
Sequence of Substance-P receptor (P25103 whole entry): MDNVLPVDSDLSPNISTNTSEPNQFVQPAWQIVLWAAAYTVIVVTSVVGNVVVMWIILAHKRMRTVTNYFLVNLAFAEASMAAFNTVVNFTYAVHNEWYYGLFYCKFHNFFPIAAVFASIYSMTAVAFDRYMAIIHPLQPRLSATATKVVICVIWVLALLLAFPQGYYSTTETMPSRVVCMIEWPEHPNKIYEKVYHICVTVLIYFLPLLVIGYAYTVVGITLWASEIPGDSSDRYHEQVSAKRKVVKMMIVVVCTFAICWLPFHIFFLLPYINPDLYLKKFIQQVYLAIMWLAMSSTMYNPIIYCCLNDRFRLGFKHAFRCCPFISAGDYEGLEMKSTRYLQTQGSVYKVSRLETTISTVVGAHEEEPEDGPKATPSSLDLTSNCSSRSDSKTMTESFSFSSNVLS

[2] = biological target: Vascular endothelial growth factor receptor 1 (Homo sapiens, UniProt P17948); experiment: biochemical; assay type: cell-based, HUVEC; settings: huvec; also: in other assays of this panel Not Active means under 50% inhibition at 10 µM
Sequence of Vascular endothelial growth factor receptor 1 (P17948 whole entry): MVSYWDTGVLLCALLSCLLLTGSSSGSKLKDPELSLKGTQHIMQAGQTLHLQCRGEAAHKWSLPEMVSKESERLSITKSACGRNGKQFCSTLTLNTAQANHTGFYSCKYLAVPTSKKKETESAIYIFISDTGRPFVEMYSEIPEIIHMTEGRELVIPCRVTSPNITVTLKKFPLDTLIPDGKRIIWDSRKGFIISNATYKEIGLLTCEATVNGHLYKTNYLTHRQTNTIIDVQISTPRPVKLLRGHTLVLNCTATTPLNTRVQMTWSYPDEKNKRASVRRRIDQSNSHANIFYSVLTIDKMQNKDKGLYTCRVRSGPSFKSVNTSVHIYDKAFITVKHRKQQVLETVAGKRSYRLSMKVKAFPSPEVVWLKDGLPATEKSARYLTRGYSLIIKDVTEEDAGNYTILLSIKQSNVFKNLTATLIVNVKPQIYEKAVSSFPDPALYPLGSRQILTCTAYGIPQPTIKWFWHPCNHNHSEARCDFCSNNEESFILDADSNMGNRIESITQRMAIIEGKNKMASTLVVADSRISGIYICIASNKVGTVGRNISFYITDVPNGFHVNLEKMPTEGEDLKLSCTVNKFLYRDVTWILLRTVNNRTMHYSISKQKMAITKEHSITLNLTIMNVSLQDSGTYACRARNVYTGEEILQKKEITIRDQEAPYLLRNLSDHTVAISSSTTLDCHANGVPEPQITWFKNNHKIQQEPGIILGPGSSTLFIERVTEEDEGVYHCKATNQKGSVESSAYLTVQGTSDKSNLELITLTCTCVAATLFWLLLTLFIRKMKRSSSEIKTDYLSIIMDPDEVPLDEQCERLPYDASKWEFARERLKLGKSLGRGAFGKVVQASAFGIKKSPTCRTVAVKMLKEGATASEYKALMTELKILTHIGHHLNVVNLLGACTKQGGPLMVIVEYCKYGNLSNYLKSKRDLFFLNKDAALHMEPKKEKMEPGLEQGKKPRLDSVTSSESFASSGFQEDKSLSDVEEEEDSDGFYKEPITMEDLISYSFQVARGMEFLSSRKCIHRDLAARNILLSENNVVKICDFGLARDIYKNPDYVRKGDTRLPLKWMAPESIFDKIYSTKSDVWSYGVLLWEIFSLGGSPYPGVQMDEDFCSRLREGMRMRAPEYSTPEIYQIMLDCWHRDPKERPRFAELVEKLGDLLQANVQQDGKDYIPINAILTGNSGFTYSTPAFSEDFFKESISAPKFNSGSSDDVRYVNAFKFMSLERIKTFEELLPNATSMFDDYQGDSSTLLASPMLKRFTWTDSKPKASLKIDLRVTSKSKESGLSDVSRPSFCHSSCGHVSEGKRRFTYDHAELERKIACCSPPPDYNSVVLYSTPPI

Insulin receptor = Insulin receptor (Rattus norvegicus, UniProt P15127); assay type: cell membranes, Wistar, Liver, Membrane; also: in other assays of this panel Not Active means under 50% inhibition at 10 µM
Sequence of Insulin receptor (P15127 27-759 limits assumed): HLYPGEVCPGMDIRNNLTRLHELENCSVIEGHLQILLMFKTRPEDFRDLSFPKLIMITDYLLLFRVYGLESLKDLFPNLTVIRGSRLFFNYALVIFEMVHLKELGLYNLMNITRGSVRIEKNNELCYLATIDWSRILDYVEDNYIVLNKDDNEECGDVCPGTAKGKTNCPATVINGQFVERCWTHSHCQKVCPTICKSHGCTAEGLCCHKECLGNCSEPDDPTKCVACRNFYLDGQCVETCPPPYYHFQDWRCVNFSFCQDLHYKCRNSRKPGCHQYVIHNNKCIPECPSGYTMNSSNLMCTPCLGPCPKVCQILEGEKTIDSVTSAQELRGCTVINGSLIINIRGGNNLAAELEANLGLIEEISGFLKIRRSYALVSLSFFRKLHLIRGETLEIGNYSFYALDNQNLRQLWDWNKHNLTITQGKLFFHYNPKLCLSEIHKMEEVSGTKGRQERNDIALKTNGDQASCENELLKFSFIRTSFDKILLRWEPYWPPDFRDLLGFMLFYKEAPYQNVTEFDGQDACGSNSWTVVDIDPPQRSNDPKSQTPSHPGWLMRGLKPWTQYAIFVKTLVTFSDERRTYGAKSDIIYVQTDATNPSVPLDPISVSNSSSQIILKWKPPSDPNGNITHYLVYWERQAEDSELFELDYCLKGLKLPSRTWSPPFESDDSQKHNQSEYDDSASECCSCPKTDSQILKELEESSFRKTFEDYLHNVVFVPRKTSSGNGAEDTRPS
Sequence of Insulin receptor (P15127 764-1383 limits assumed): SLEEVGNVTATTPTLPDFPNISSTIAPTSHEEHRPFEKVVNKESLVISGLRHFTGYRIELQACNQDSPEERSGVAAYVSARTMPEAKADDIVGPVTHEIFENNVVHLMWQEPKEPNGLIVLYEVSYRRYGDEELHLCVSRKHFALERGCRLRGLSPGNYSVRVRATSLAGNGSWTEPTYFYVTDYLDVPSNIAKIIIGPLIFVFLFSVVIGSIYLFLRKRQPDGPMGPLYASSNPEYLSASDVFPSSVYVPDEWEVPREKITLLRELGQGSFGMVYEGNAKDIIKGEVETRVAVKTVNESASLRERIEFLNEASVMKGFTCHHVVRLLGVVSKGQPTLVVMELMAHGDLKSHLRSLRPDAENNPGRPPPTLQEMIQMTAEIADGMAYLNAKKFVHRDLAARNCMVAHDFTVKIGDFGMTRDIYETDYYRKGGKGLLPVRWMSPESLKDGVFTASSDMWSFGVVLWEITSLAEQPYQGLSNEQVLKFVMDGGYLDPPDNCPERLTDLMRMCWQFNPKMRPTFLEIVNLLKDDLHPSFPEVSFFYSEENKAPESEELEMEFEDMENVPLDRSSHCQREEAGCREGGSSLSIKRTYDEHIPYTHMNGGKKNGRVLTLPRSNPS

[3] = DRUGMATRIX: Phosphodiesterase PDE4 enzyme inhibition (substrate: [3H]cAMP + cAMP); settings: u-937; Not Active = under 50% inhibition at 10 µM
[4] = biological target: Protein phosphatase 3 catalytic subunit alpha (Homo sapiens, UniProt Q08209); set-up: species or system Escherichia coli
Adenosine receptor A2a = Adenosine receptor A2a (Homo sapiens, UniProt P29274); experiment: DRUGMATRIX: Adenosine A2A radioligand binding (ligand: […]); assay type: cell membranes, HEK293, Membrane; settings: hek293; Not Active = under 50% inhibition at 10 µM
Sequence of Adenosine receptor A2a (P29274 whole entry): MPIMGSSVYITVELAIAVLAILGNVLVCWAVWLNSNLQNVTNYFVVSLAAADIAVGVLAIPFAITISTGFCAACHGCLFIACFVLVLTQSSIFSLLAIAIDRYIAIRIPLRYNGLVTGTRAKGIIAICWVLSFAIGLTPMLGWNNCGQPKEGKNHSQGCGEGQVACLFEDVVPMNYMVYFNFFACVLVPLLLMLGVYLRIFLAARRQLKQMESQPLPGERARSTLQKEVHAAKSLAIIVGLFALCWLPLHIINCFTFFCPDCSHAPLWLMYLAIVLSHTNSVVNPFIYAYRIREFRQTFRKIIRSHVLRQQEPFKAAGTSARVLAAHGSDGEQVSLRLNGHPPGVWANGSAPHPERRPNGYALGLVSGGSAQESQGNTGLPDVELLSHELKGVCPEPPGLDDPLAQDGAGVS

Sequence of 5-hydroxytryptamine receptor 4 (O70528 whole entry): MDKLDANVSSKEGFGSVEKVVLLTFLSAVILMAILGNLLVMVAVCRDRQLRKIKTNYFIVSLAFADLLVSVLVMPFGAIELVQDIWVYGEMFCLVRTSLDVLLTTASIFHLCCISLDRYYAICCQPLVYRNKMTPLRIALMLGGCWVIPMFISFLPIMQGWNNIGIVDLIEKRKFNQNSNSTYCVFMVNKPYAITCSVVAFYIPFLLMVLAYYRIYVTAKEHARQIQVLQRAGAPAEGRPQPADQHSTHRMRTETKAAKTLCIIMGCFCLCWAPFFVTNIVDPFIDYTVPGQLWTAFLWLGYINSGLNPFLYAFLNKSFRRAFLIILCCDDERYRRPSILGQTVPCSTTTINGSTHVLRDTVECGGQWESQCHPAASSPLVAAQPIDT

SMILES | IC50 [1] | IC50 (Substance-P receptor; cho) | IC50 [2] | IC50 (Insulin receptor) | IC50 [3] | Ki [3] | IC50 [4] | IC50 (Adenosine receptor A2a) | IC50 (Substance-P receptor; read-out: IC50) [µM] | Ki (Substance-P receptor; read-out: Ki) [µM]
Cc1c(C)c2c(c(C)c1O)CCC(C)(CN1CCN(c3cc(N4CCCC4)nc(N4CCCC4)n3)CC1)O2 (stereo not given) | Not Active | Not Active | Not Active | Not Active | Not Active | Not Active | Not Active | Not Active | – | –
COc1ccc(CCN(C)CCCC(C#N)(c2ccc(OC)c(OC)c2)C(C)C)cc1OC (stereo not given) | Not Active | Not Active | Not Active | Not Active | Not Active | Not Active | Not Active | Not Active | – | –
CC(C)Cc1ccc([C@@H](C)C(=O)O)cc1 [(R)-IBUPROPHEN] | Not Active | Not Active | Not Active | Not Active | Not Active | Not Active | Not Active | Not Active | – | –
CN(C)CCOC(c1ccccc1)c1ccccc1 [DIPHENHYDRAMINE] | Not Active | Not Active | Not Active | Not Active | – | – | Not Active | Not Active | – | –
Clc1ccc(COC(Cn2ccnc2)c2ccc(Cl)cc2Cl)cc1 (stereo not given) [ECONAZOLE] | Not Active | – | Not Active | Not Active | – | – | Not Active | – | 11.9 | 6.48
CCN(CC)CCOc1ccc(/C(=C(/Cl)c2ccccc2)c2ccccc2)cc1 [ENCLOMIPHENE] | Not Active | Not Active | Not Active | Not Active | – | – | Not Active | Not Active | – | –
Fc1ccc(C(c2ccc(F)cc2)N2CCN(C/C=C/c3ccccc3)CC2)cc1 [FLUNARIZINE] | Not Active | Not Active | Not Active | Not Active | – | – | Not Active | Not Active | – | –
CNCCC(Oc1ccc(C(F)(F)F)cc1)c1ccccc1 (stereo not given) [FLUOXETINE] | Not Active | Not Active | Not Active | Not Active | – | – | Not Active | Not Active | – | –
Cc1ccc(NC(=O)c2ccc(CN3CCN(C)CC3)cc2)cc1Nc1nccc(-c2cccnc2)n1 [IMATINIB] | Not Active | Not Active | – | Not Active | – | – | Not Active | Not Active | – | –
CC(C)Oc1ccc2c(=O)c(-c3ccccc3)coc2c1 [IPRIFLAVONE] | Not Active | Not Active | Not Active | Not Active | Not Active | Not Active | Not Active | Not Active | – | –
CC(C)NCC(O)c1ccc(O)c(O)c1 (stereo not given) [ISOPROTERENOL] | Not Active | Not Active | Not Active | Not Active | Not Active | Not Active | Not Active | Not Active | – | –
CNC1(c2ccccc2Cl)CCCCC1=O (stereo not given) [KETAMINE] | Not Active | Not Active | Not Active | Not Active | Not Active | Not Active | Not Active | Not Active | – | –
N#Cc1ccc(C(c2ccc(C#N)cc2)n2cncn2)cc1 [LETROZOLE] | Not Active | Not Active | Not Active | Not Active | Not Active | Not Active | Not Active | Not Active | – | –
CCN1CCC[C@H]1CNC(=O)c1cc(S(N)(=O)=O)ccc1OC [LEVOSULPIRIDE] | Not Active | Not Active | Not Active | Not Active | Not Active | Not Active | Not Active | Not Active | – | –
CCN(CC)CC(=O)Nc1c(C)cccc1C [LIDOCAINE] | Not Active | Not Active | Not Active | Not Active | Not Active | Not Active | Not Active | Not Active | – | –
O=C1Nc2ccc(Cl)cc2C(c2ccccc2Cl)=NC1O (stereo not given) [LORAZEPAM] | Not Active | Not Active | Not Active | Not Active | Not Active | Not Active | Not Active | Not Active | – | –
